This passage reports IC50 results from US9902696B2, “1,4-substituted piperidine derivatives” (Cephalon, Inc., priority 2015, dated 2018).

Where a name gives a salt, the structure may show the parent alone.

For one test, the target named is T1, recombinant human baculovirus-expressed GST-tagged FASN (Homo sapiens, UniProt P49327).
T1 construct: GST
T1 sequence (P49327 whole entry): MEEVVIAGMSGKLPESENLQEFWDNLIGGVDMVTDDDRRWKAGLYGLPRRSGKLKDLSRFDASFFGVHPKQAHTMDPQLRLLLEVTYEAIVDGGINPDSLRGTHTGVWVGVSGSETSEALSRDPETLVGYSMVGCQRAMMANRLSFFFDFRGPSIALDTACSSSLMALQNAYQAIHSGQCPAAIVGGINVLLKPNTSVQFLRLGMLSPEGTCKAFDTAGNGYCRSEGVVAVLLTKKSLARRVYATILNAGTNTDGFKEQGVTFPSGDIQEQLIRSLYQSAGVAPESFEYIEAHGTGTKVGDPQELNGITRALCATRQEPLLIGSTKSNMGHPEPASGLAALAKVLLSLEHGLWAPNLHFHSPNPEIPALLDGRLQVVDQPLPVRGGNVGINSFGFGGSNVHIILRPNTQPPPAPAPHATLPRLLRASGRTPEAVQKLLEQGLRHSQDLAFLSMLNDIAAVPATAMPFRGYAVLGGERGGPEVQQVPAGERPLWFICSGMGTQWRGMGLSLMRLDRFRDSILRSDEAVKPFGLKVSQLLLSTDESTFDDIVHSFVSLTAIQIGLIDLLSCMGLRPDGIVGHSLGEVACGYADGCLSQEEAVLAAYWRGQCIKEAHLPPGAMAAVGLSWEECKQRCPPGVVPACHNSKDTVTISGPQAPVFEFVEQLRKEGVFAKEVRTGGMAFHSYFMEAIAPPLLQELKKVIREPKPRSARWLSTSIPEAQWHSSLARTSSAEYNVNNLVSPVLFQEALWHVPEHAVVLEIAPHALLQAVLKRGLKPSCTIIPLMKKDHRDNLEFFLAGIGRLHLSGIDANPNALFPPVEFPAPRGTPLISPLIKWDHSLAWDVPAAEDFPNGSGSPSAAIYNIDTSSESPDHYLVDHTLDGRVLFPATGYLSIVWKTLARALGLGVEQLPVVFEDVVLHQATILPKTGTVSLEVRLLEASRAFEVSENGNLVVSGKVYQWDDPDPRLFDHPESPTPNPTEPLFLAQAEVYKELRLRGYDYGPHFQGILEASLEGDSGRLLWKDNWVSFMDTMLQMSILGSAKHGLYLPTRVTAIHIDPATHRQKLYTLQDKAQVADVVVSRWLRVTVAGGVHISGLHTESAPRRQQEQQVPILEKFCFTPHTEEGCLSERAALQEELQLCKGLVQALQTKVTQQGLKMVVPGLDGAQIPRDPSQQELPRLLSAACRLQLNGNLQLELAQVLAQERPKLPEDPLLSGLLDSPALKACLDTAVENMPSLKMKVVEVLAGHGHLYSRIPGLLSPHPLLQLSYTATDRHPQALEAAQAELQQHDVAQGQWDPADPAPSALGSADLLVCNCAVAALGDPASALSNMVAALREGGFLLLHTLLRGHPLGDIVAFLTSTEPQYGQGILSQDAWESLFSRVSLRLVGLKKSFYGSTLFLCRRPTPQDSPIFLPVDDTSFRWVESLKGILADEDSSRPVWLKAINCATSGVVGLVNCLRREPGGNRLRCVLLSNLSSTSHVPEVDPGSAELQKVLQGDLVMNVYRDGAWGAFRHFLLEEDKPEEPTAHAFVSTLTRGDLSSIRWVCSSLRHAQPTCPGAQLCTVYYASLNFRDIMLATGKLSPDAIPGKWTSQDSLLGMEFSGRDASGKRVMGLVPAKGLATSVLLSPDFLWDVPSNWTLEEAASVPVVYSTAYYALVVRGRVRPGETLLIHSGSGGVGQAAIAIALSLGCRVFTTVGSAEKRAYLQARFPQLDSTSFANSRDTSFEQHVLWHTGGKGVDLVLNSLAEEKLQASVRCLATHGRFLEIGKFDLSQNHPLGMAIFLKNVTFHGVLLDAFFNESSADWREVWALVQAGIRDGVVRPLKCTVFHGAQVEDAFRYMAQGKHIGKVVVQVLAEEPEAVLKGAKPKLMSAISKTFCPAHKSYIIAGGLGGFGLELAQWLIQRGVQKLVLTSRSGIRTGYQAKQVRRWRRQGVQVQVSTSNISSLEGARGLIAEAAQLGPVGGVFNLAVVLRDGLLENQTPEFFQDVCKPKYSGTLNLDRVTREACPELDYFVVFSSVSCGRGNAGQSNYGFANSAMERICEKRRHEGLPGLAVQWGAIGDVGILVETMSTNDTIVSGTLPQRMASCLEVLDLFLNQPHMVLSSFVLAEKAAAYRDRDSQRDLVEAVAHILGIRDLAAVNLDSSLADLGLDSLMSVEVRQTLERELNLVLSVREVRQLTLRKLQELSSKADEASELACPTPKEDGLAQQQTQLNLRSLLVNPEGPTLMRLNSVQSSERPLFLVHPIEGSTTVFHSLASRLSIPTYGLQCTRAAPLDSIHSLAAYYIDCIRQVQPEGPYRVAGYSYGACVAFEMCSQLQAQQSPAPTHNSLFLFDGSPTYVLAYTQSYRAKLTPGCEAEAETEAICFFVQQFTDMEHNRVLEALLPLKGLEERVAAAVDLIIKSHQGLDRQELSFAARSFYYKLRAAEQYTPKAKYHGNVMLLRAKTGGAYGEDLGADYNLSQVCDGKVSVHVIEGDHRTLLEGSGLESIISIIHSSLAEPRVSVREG
In words: FASN enzyme activity assay, fluorescence-based detection of CoA with CPM. Format: biochemical. To be noted: 5 nM FASN, 150 μM NADPH, 10 μM acetyl-CoA, 25 μM malonyl-CoA, 90 minutes incubation; read-out: IC50 data for Additional Compounds of Formulae I-V(a): Activity. A digest of the protocol: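 CoA product reacted with thiol-reactive CPM (diluted to 50 μM in 70% ethanol), read at 390/530 nm after 30 min. Preceding reaction: 90 min, 5 nM recombinant GST-FASN, 150 μM NADPH, 10 μM acetyl-CoA, 25 μM malonyl-CoA, pH 7.5 HEPES, 0.5% DMSO. IC50s fitted by nonlinear sigmoidal regression.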
In the case of `CCNC(=O)N1CCC(Oc2ccc(-c3ccc4ccc(O)nc4c3C)cc2)CC1` [Example 529, N-Ethyl-4-[4-(2-hydroxy-8-methyl-7-quinolyl)phenoxy]piperidine-1-carboxamide], the IC50 was 1000 to 10000 nM.
With `Cc1c(-c2ccc(OC3CCN(C(=O)NCCN4CCCC4)CC3)cc2)ccc2cccnc12` [Example 530, 4-[4-(8-Methyl-7-quinolyl)phenoxy]-N-(2-pyrrolidin-1-ylethyl)piperidine-1-carboxamide HCl], the IC50 was in the range of 1 to 99 nM.
`Cc1c(-c2ccc(OC3CCN(C(=O)NCCN4CCOCC4)CC3)cc2)ccc2cccnc12` [Example 531, 4-[4-(8-Methyl-7-quinolyl)phenoxy]-N-(2-morpholinoethyl)piperidine-1-carboxamide HCl]: the IC50 is 1000 to 10000 nM.
On to `Cc1c(-c2ccc(OC3CCN(C(=O)N4CCN(C(C)C)CC4)CC3)cc2)ccc2cccnc12` [Example 532, (4-Isopropylpiperazin-1-yl)-[4-[4-(8-methyl-7-quinolyl)phenoxy]-1-piperidyl]methanone, HCl], for which the IC50 was in the range of 1000 to 10000 nM.
As to `Cc1c(-c2ccc(OC3CCN(C(=O)N4CCN(C)CC4)CC3)cc2)ccc2cccnc12` [Example 533, (4-Methyllpiperazin-1-yl)-[4-[4-(8-methyl-7-quinolyl)phenoxy]-1-piperidyl]methanone, HCl], the IC50 lay in the range of 1000 to 10000 nM.
`Cc1c(-c2ccc(OC3CCN(C(=O)N4CCC(N5CCOCC5)CC4)CC3)cc2)ccc2cccnc12` [Example 534, [4-[4-(8-Methyl-7-quinolyl)phenoxy]-1-piperidyl]-(4-morpholino-1-piperidyl)methanone, HCl]: the IC50 is 1000 to 10000 nM.
In the case of `CCN1CCN(C(=O)N2CCC(Oc3ccc(-c4ccc5cccnc5c4C)cc3)CC2)CC1` [Example 535, (4-Ethyl lpiperazin-1-yl)-[4-[4-(8-methyl-7-quinolyl)phenoxy]-1-piperidyl]methanone tosylate], the IC50 lay in the range of 1000 to 10000 nM.
For the compound `CCNC(=O)N1CCC(Oc2ccc(-c3ccc4ccnn4c3C)cc2)CC1` [Example 536, N-Ethyl-4-[4-(7-methylpyrazolo[1,5-a]pyridin-6-yl)phenoxy]piperidine-1-carboxamide], the IC50 was 1000 to 10000 nM.
Regarding `Cc1c(-c2ccc(OC3CCN(C(=O)NOC(C)C)CC3)cc2)ccc2ccnn12` [Example 537, N-Isopropoxy-4-[4-(7-methylpyrazolo[1,5-a]pyridin-6-yl)phenoxy]piperidine-1-carboxamide], the IC50 lay in the range of 1 to 99 nM.
Consider `CCONC(=O)N1CCC(Oc2ccc(-c3ccc4ccnn4c3C)cc2)CC1` [Example 538, N-Ethoxyoxy-4-[4-(7-methylpyrazolo[1,5-a]pyridin-6-yl)phenoxy]piperidine-1-carboxamide], for which the IC50 lay within 1 to 99 nM.
`CONC(=O)N1CCC(Oc2ccc(-c3ccc4ccnn4c3C)cc2)CC1` [Example 539, N-Methoxyoxy-4-[4-(7-methylpyrazolo[1,5-a]pyridin-6-yl)phenoxy]piperidine-1-carboxamide]: the IC50 lay within 1 to 99 nM.
On to `Cc1c(-c2ccc(OC3CCN(C(=O)NCC4CC4)CC3)cc2)ccc2cccnc12` [Example 540, N-(Cyclopropylmethyl)-4-[4-(8-methyl-7-quinolyl)phenoxy]piperidine-1-carboxamide, HCl], for which the IC50 lay in the range of 1 to 99 nM.
Regarding `Cc1c(-c2ccc(OC3CCN(C(=O)NCC(C)C)CC3)cc2)ccc2cccnc12` [Example 541, N-Isobutyl-4-[4-(8-methyl-7-quinolyl)phenoxy]piperidine-1-carboxamide, HCl], the IC50 is 1 to 99 nM.
`COCCNC(=O)N1CCC(Oc2ccc(-c3ccc4cccnc4c3C)cc2)CC1` [Example 542, N-(2-Methoxyethyl)-4-[4-(8-methyl-7-quinolyl)phenoxy]piperidine-1-carboxamide HCl]: the IC50 was in the range of 1 to 99 nM.
Regarding `Cc1c(-c2ccc(OC3CCN(C(=O)NOC(C)C)CC3)cc2)ccc2cccnc12` [Example 543, N-Isopropoxy-4-[4-(8-methyl-7-quinolyl)phenoxy]piperidine-1-carboxamide], the IC50 is 1000 to 10000 nM.

The same test, now with this note: 5 nM FASN, 150 μM NADPH, 10 μM acetyl-CoA, 25 μM malonyl-CoA, 90 minutes incubation; read-out: IC50 data for Compounds of Formulae I-V/V(a): Activity.
As for `CCC(=O)N1CCC(Oc2ccc(-c3cc(F)cc(OCc4ccccc4)c3)cc2)CC1` [Example 506, 1-[4-(5′-Benzyloxy-3′-fluorobiphenyl-4-yloxy)-piperidin-1-yl]-propan-1-one], the IC50 was in the range of 1000 to 10000 nM.
On the same count and under the same terms, for `O=C(C1CC1)N1CCC(Oc2ccc(-c3cc(F)cc(OCc4ccccc4)c3)cc2)CC1` [Example 507, [4-(5′-Benzyloxy-3′-fluorobiphenyl-4-yloxy)-piperidin-1-yl]-cyclopropyl-methanone] the value was 1000 to 10000 nM; for `CCC(=O)N1CCC(Oc2ccc(-c3ccc(Oc4ccccc4)cc3)cc2)CC1` [Example 508, 1-[4-(4′-Phenoxybiphenyl-4-yloxy)-piperidin-1-yl]-propan-1-one], 1000 to 10000 nM; for `O=C(C1CC1)N1CCC(Oc2ccc(-c3ccc(Oc4ccccc4)cc3)cc2)CC1` [Example 509, Cyclopropyl-[4-(4′-phenoxybiphenyl-4-yloxy)-piperidin-1-yl]-methanone], 1000 to 10000 nM.
For `CCC(=O)N1CCC(Oc2ccc(-c3cccc(Oc4ccccc4)c3)cc2)CC1` [Example 510, 1-[4-(3′-Phenoxybiphenyl-4-yloxy)-piperidin-1-yl]-propan-1-one], the IC50 was in the range of 1000 to 10000 nM.
As to `O=C(C1CC1)N1CCC(Oc2ccc(-c3cccc(Oc4ccccc4)c3)cc2)CC1` [Example 511, Cyclopropyl-[4-(3′-phenoxybiphenyl-4-yloxy)-piperidin-1-yl]-methanone], the IC50 was in the range of 1000 to 10000 nM.
For the compound `CC(C)C(=O)N1CCC(S(=O)(=O)c2ccc(-c3ccc4cccnc4c3)cc2)CC1` [Example 512, 2-Methyl-1-[4-(4-quinolin-7-yl-benzenesulfonyl)-piperidin-1-yl]-propan-1-one], the IC50 lay within 1000 to 10000 nM.
Same read-out and setting: for `CC(C)C(=O)N1CCC(S(=O)(=O)c2ccc(-c3ccc4ccncc4c3)cc2)CC1` [Example 513, 1-[4-(4-Isoquinolin-7-yl-benzenesulfonyl)-piperidin-1-yl]-2-methylpropan-1-one] the value was 1000 to 10000 nM; for `CC(C)C(=O)N1CCC(S(=O)(=O)c2ccc(-c3ccc4cnccc4c3)cc2)CC1` [Example 514, 1-[4-(4-Isoquinolin-6-yl-benzenesulfonyl)-piperidin-1-yl]-2-methyl-propan-1-one], 1000 to 10000 nM; for `CC(C)C(=O)N1CCC(S(=O)(=O)c2ccc(-c3ccc4occc4c3)cc2)CC1` [Example 515, 1-[4-(4-Benzofuran-5-yl-benzenesulfonyl)-piperidin-1-yl]-2-methyl-propan-1-one], 1000 to 10000 nM.
Regarding `CCC(=O)N1CCC(Sc2ccc(-c3ccc4cccnc4c3)cc2)CC1` [Example 516, 1-(4-((4-(quinolin-7-yl)phenyl)thio)piperidin-1-yl)propan-1-one, HCl], the IC50 fell in the range of 1 to 99 nM.
On the same count and under the same terms, for `CCC(=O)N1CCC(Sc2ccc(-c3ccc4cnccc4c3)cc2)CC1` [Example 517, 1-(4-((4-(Isoquinolin-6-yl)phenyl)thio)piperidin-1-yl)propan-1-one, HCl] the value was 1 to 99 nM; for `CCC(=O)N1CCC(Sc2ccc(-c3cnc4ccccc4c3)cc2)CC1` [Example 518, 1-(4-((4-(Quinolin-3-yl)phenyl)thio)piperidin-1-yl)propan-1-one, HCl], 1 to 99 nM; for `CCC(=O)N1CCC(Sc2ccc(-c3cncc4ccccc34)cc2)CC1` [Example 519, 1-(4-((4-(Isoquinolin-4-yl)phenyl)thio)piperidin-1-yl)propan-1-one, HCl], 1000 to 10000 nM.
Consider `CC(C)C(=O)N1CCC(Sc2ccc(-c3ccc4cccnc4c3)cc2)CC1` [Example 520, HCl], for which the IC50 was 1 to 99 nM.
For the compound `CC(C)C(=O)N1CCC(Sc2ccc(-c3ccc4cnccc4c3)cc2)CC1` [Example 521, 1-(4-((4-(Isoquinolin-6-yl)phenyl)thio)piperidin-1-yl)-2-methylpropan-1-one HCl], the IC50 lay within 100 to 999 nM.
For `CC(C)C(=O)N1CCC(Sc2ccc(-c3cnc4ccccc4c3)cc2)CC1` [Example 522, 2-Methyl-1-(4-((4-(quinolin-3-yl)phenyl)thio)piperidin-1-yl)propan-1-one, HCl], the IC50 was 1000 to 10000 nM.
Take `CC(C)C(=O)N1CCC(Sc2ccc(-c3cncc4ccccc34)cc2)CC1` [Example 523, 1-(4-((4-(Isoquinolin-4-yl)phenyl)thio)piperidin-1-yl)-2-methylpropan-1-one HCl]: the IC50 is 1000 to 10000 nM.
`CCC(=O)N1CCC(N(C)c2ccc(-c3cnc4ccccc4c3)cc2)CC1` [Example 524, 1-{4-[Methyl-(4-quinolin-3-yl-phenyl)-amino]-piperidin-1-yl}-propan-1-one, HCl]: the IC50 lay within 100 to 999 nM.
With `CN(c1ccc(-c2cnc3ccccc3c2)cc1)C1CCN(C(=O)C2CC2)CC1` [Example 525, Cyclopropyl-{4-[methyl-(4-quinolin-3-yl-phenyl)-amino]-piperidin-1-yl}-methanone, HCl], the IC50 was 100 to 999 nM.
For `CCC(=O)N1CCC(Nc2ccc(-c3cnc4ccccc4c3)cc2)CC1` [Example 526, 1-[4-(4-Quinolin-3-yl-phenylamino)-piperidin-1-yl]-propan-1-one, HCl], the IC50 is 1000 to 10000 nM.
Still for that read-out and setting: the result for `O=C(C1CC1)N1CCC(Nc2ccc(-c3cnc4ccccc4c3)cc2)CC1` [Example 527, Cyclopropyl-[4-(4-quinolin-3-yl-phenylamino)-piperidin-1-yl]-methanone, HCl] reads 1000 to 10000 nM; that for `CN(c1ccc(-c2cnc3ccccc3c2)cc1)C1CCN(C(=O)[C@H]2CCCO2)CC1` [Example 528, {4-[Methyl-(4-quinolin-3-yl-phenyl)-amino]-piperidin-1-yl}-(R)-tetrahydrofuran-2-yl-methanone, HCl], 100 to 999 nM.
